Assay [1] has as its target Dual specificity tyrosine-phosphorylation-regulated kinase 1B (Homo sapiens) (UniProt Q9Y463). The assay can be described thus: Inhibition of DYRK1B (unknown origin) assessed as residual activity at 100 nM by KINOMEscan analysis relative to control.
In assay [2] the test system is Phosphatidylinositol 4,5-bisphosphate 3-kinase catalytic subunit alpha isoform (Homo sapiens), P42336 [E545A]. The assay can be described thus: Inhibition of PIK3CA E545A mutant (unknown origin) assessed as residual activity at 100 nM by KINOMEscan analysis relative to control.
Phosphatidylinositol 4,5-bisphosphate 3-kinase catalytic subunit alpha isoform (Homo sapiens), P42336 [E545A], sequence (P42336 whole entry E545A, canonical isoform): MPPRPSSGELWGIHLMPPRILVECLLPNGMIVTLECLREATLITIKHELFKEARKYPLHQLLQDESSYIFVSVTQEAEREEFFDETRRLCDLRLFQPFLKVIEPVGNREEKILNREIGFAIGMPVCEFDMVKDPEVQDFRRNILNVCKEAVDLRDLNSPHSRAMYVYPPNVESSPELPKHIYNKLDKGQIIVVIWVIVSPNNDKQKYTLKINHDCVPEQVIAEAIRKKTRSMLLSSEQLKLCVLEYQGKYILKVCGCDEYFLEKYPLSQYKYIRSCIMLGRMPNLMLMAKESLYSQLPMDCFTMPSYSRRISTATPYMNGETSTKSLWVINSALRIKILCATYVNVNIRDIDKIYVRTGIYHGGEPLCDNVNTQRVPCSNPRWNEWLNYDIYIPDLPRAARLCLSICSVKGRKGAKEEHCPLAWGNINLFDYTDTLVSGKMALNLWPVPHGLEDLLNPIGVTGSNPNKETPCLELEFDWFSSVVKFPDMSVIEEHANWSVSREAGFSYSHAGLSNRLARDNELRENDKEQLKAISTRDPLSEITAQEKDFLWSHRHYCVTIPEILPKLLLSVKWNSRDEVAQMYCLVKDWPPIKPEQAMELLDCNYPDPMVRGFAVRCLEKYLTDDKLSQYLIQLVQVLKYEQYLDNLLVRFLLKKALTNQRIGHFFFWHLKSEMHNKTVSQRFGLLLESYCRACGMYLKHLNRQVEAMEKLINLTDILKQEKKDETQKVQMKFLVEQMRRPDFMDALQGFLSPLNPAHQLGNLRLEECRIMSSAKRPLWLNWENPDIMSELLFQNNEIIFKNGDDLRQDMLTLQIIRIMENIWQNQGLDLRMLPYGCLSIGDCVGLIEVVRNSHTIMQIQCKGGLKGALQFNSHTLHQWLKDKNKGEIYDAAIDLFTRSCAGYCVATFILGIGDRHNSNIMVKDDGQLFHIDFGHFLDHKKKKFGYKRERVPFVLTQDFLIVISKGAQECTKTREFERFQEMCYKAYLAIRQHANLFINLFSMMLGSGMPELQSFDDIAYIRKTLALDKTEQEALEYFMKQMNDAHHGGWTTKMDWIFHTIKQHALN
Assay [3] deals with Dual specificity mitogen-activated protein kinase kinase 2 (Homo sapiens) (UniProt P36507). The assay can be described thus: Inhibition of MEK2 (unknown origin) assessed as residual activity at 100 nM by KINOMEscan analysis relative to control.
In assay [4] the target is Serine/threonine-protein kinase N2 (Homo sapiens) (UniProt Q16513). The assay can be described thus: Inhibition of PKN2 (unknown origin) assessed as residual activity at 100 nM by KINOMEscan analysis relative to control.
The target in assay [5] is T1, cAMP-dependent protein kinase catalytic subunit PRKX (Homo sapiens) (UniProt P51817).
T1 sequence (whole entry): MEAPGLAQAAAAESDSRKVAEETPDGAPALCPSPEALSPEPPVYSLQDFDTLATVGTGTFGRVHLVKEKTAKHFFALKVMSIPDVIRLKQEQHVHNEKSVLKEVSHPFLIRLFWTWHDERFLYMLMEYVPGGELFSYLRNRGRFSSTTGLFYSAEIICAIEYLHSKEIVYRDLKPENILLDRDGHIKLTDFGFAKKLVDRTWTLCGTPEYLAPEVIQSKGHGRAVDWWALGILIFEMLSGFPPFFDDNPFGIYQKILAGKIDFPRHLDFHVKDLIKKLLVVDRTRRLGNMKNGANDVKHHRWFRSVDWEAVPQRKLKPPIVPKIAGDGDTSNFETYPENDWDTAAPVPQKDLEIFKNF
Put plainly: Inhibition of PRKX (unknown origin) assessed as residual activity at 100 nM by KINOMEscan analysis relative to control.

For assay [6], the target named is Serine/threonine-protein kinase pim-2 (Homo sapiens) (UniProt Q9P1W9). Put plainly: Inhibition of PIM2 (unknown origin) assessed as residual activity at 100 nM by KINOMEscan analysis relative to control.
In assay [7] the target is Mitogen-activated protein kinase 6 (Homo sapiens) (UniProt Q16659). Put plainly: Inhibition of ERK3 (unknown origin) assessed as residual activity at 100 nM by KINOMEscan analysis relative to control.
Mitogen-activated protein kinase 6 (Homo sapiens), sequence (Q16659 whole entry): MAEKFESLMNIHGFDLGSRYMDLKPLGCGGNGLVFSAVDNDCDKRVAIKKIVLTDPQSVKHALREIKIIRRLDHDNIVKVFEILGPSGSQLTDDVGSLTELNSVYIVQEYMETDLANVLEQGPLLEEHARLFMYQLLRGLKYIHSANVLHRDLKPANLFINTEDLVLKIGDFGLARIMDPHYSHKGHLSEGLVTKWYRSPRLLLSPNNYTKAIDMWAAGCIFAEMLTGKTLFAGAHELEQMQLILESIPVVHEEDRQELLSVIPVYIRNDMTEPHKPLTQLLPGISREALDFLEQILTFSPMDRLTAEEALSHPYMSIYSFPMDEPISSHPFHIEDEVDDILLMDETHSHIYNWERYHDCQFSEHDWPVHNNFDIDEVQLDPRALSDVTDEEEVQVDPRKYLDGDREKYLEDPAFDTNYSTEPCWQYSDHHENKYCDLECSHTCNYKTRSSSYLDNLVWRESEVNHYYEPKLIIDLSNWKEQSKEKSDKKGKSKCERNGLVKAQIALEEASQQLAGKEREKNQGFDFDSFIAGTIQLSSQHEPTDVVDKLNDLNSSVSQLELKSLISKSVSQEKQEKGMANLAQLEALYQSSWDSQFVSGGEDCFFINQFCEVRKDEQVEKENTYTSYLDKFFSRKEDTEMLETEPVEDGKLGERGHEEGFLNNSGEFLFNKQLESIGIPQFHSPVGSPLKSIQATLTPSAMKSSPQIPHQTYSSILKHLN
The test system of assay [8] is Tyrosine-protein kinase ABL1 (Homo sapiens), P00519 [F317I]. The assay can be described thus: Inhibition of phosphorylated ABL1 F317I mutant (unknown origin) assessed as residual activity at 100 nM by KINOMEscan analysis relative to control.
Assay [9] concerns Epidermal growth factor receptor (Homo sapiens), P00533 [T790M]. Put plainly: Inhibition of EGFR T790M mutant (unknown origin) assessed as residual activity at 100 nM by KINOMEscan analysis relative to control.
Assay [10] addresses Ribosomal protein S6 kinase alpha-3 (Homo sapiens) (UniProt P51812). The assay can be described thus: Inhibition of N-terminal RSK2 kinetic domain 1 (unknown origin) assessed as residual activity at 100 nM by KINOMEscan analysis relative to control.
Assay [11] addresses Vascular endothelial growth factor receptor 3 (Homo sapiens) (UniProt P35916). The assay can be described thus: Inhibition of FLT4 (unknown origin) assessed as residual activity at 100 nM by KINOMEscan analysis relative to control.
Assay [12] concerns the target T2, Serine/threonine-protein kinase haspin (Homo sapiens) (UniProt Q8TF76).
T2 sequence (whole entry): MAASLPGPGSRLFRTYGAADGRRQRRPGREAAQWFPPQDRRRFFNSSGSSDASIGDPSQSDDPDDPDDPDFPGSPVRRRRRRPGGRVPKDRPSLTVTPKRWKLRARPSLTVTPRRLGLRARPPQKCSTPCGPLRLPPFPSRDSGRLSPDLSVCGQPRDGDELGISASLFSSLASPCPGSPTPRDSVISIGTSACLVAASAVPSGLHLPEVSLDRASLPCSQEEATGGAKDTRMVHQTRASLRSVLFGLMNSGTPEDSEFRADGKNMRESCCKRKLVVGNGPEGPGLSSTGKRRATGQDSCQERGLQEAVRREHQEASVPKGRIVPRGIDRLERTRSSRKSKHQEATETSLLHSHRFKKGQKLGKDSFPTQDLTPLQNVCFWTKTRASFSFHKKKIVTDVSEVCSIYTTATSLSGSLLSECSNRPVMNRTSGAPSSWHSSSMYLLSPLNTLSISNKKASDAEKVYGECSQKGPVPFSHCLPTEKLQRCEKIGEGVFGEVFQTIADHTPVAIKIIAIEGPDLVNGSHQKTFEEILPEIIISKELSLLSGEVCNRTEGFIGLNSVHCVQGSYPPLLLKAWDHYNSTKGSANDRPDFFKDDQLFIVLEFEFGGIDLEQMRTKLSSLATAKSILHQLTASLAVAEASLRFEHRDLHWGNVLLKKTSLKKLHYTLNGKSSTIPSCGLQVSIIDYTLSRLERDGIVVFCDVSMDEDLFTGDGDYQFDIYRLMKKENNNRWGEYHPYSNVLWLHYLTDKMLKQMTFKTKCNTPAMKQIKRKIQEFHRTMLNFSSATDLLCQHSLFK
Put plainly: Inhibition of HASPIN (unknown origin) assessed as residual activity at 100 nM by KINOMEscan analysis relative to control.

Assay [13] deals with Misshapen-like kinase 1 (Homo sapiens) (UniProt Q8N4C8). The assay can be described thus: Inhibition of MINK (unknown origin) assessed as residual activity at 100 nM by KINOMEscan analysis relative to control.
Assay [14] deals with Mast/stem cell growth factor receptor Kit (Homo sapiens), P10721 [V559D,V654A]. The assay can be described thus: Inhibition of KIT V559D/V654A mutant (unknown origin) assessed as residual activity at 100 nM by KINOMEscan analysis relative to control.
Mast/stem cell growth factor receptor Kit (Homo sapiens), P10721 [V559D,V654A], sequence (P10721 whole entry V559D/V654A): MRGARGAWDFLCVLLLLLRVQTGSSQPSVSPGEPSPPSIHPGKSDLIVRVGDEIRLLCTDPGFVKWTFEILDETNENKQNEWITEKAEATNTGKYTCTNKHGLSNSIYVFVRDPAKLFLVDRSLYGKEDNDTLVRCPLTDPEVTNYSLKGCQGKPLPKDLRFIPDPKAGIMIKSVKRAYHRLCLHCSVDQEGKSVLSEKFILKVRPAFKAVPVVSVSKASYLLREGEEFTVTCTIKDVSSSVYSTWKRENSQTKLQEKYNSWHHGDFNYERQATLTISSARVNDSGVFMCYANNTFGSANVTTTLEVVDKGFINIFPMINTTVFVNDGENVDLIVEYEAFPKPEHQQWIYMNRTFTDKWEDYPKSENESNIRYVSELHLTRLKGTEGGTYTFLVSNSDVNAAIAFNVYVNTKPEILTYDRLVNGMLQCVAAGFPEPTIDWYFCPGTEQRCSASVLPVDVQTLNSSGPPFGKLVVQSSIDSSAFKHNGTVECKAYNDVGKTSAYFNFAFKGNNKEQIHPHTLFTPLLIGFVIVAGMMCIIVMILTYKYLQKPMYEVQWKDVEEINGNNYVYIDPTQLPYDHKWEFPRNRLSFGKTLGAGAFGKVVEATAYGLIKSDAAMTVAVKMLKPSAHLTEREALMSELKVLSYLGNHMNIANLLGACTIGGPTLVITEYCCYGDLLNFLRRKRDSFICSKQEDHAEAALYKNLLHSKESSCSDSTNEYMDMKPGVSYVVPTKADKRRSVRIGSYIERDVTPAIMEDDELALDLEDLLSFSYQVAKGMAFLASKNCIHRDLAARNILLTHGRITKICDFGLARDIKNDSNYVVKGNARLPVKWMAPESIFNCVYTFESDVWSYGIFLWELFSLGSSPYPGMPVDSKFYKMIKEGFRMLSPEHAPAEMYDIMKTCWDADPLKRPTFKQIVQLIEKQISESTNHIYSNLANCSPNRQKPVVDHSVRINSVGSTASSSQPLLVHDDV
For assay [15], the target named is Serine/threonine-protein kinase PRP4 homolog (Homo sapiens) (UniProt Q13523). The assay can be described thus: Inhibition of PRP4 (unknown origin) assessed as residual activity at 100 nM by KINOMEscan analysis relative to control.
Serine/threonine-protein kinase PRP4 homolog (Homo sapiens), sequence (Q13523 whole entry): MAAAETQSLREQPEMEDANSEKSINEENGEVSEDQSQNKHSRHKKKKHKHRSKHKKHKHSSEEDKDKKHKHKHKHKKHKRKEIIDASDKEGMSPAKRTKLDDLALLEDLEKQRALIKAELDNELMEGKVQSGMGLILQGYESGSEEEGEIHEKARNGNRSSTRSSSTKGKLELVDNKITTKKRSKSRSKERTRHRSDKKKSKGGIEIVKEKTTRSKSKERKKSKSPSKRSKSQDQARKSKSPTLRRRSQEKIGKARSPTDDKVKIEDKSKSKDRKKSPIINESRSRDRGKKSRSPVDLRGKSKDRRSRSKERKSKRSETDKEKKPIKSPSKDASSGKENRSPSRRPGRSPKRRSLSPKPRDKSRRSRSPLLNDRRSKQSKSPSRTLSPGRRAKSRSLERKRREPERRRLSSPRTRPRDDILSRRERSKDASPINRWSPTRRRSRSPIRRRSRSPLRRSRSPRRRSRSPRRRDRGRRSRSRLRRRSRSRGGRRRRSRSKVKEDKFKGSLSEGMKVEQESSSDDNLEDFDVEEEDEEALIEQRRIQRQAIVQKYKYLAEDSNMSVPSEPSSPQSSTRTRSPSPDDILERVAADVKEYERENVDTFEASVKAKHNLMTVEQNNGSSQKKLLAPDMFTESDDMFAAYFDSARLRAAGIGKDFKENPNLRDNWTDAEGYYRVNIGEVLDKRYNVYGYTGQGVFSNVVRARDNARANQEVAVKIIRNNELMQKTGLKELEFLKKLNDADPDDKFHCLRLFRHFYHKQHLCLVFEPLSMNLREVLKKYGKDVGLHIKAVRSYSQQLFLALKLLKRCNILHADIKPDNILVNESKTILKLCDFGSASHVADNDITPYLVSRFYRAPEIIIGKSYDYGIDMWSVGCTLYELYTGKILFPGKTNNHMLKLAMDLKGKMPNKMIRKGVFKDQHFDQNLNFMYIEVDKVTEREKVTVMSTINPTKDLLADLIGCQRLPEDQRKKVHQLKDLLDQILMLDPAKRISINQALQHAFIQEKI
The target in assay [16] is MAP kinase-activated protein kinase 2 (Homo sapiens) (UniProt P49137). The assay can be described thus: Inhibition of MAPKAPK2 (unknown origin) assessed as residual activity at 100 nM by KINOMEscan analysis relative to control.
MAP kinase-activated protein kinase 2 (Homo sapiens), sequence (P49137 whole entry, looked up): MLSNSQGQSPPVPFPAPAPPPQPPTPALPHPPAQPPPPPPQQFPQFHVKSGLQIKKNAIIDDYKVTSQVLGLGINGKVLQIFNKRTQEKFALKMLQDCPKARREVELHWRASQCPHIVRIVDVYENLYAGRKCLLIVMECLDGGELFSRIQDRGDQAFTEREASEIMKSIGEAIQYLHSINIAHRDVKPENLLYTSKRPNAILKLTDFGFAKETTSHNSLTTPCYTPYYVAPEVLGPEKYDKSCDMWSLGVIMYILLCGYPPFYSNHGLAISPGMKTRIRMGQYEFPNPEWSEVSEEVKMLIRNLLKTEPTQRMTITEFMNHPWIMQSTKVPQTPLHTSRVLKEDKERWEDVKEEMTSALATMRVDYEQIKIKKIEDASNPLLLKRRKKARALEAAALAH

Each structure is given as a SMILES string.

The values that follow come from ChEMBL document CHEMBL5678818, “Discovery of potent SOS1 inhibitors that block RAS activation via disruption of the RAS-SOS1 interaction” (Proc Natl Acad Sci U S A, 2019).

Ribosomal protein S6 kinase alpha-3 (Homo sapiens), sequence (P51812 whole entry, the tested form may be a part): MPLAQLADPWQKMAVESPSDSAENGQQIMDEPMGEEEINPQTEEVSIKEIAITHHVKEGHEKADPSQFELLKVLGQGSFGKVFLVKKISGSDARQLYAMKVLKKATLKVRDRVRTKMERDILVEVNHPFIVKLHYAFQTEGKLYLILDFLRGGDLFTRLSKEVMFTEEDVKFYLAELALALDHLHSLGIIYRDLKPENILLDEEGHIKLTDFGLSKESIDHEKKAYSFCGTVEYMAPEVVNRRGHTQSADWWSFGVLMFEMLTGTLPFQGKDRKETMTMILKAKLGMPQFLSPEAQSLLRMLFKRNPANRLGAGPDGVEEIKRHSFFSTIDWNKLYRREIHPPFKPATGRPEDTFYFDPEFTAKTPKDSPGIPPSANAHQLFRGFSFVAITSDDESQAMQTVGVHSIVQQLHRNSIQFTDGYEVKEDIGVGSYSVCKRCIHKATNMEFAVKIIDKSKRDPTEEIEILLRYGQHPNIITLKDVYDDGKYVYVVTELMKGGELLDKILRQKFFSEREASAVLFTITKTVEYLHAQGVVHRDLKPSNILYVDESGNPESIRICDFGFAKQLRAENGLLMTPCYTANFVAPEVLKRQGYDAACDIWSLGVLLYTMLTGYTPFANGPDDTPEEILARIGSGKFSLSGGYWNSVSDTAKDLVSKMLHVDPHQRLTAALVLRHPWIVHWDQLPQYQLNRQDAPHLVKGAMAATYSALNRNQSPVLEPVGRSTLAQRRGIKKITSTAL

With `COc1cc2ncnc(N[C@H](C)c3cccc4ccccc34)c2cc1OC`, the Activity in [1] was found to be 76%; in assay [2], 93%; in [3], 90%; in assay [4], 88%; in assay [5] it was 100%; in assay [6], 73%. The Activity amounted to 40% in [7]; 91% in [8]; 96% in assay [9]; 70% in assay [10]; 92% in [11]; 95% in assay [12]. For the same compound, the Activity stood at 77% in assay [13], 100% in [14], 95% in [15] and 83% in [16].
